The source of these data is publication PMC7509492, “To What Extent Do Fluorophores Bias the Biological Activity of Peptides? A Practical Approach Using Membrane-Active Peptides as Models” (Frontiers in Bioengineering and Biotechnology, 2020).

Peptide text beside a SMILES is read from it. * marks the point of attachment. RhodamineB = CCN(CC)c1ccc2c(-c3ccccc3C(=O)*)c3ccc(=[N+](CC)CC)cc-3oc2c1; X1 = CC[N+]1=C(C=CC=C2N(CCCCCC(=O)*)c3ccccc3C2(C)C)C(C)(C)c2ccccc21; 5FAM = O=C1OC2(c3ccc(O)cc3Oc3cc(O)ccc32)c2ccc(C(=O)*)cc21 A value given as a limit tells only on which side of the number the result lay.

The nature of data set [1]: CellTiter-Blue cell viability assay, MDA-MB-231. It counts as cell-based, human. As to conditions: human, MDA-MB-231 cells, mean ± SD, triplicates of three independent experiments; for IC90 at 24 h: Table 1, concentration causing 90% cell death, peptide 0.01-100 μM, read-out: Cytotoxicity MDA-MB-231 cells IC90; for IC50 at 24 h: Table 1, peptide 0.01-100 μM, read-out: Cytotoxicity MDA-MB-231 cells IC50. The protocol: (§1) Peptides cytotoxicity against both HBEC-5i and MDA-MB-231 cells was determined using CellTiter-Blue® Cell Viability Assay, according to the manufacturer’s instructions. The assay is based on the ability of viable cells to reduce resazurin into resorufin, a highly fluorescent metabolite. […] Therefore, using this methodology is possible to distinguish between metabolic and non-metabolic cells and indirectly determine the cytotoxicity of peptides. Briefly, HBEC-5i and MDA-MB-231 cells were carefully detached from T-flasks, as described previously, and seeded 15,000/100 and 10,000/100 μL, respectively, in 96-well plates (Corning, United States) and incubated for 24 h. After medium removal, cells were washed two times with 1× PBS and 100 μL of previously diluted peptides (range between 0.01 and 100 μM) in either DMEM or DMEM:F12 medium were added to MDA-MB-231 or HBEC-5i cells, respectively. After 24 h incubation, cells were washed two times with 1× PBS, and 20 μL of CellTiter-Blue® Reagent (diluted in 100 μL of medium) was added to each well and incubated for 3 h in a humidified atmosphere of 5% CO2 at 37°C. The fluorescence intensity was measured at λ with an excitation of 560 nm and maximum emission at 590 nm using the infinite F200 TECAN plate reader. Medium and 1% Triton X-100-containing medium were used as positive controls (100% cell viability) and negative controls (0% cell viability), respectively. Cell viability (%) was determined using the following equation:
(§2) (7) CellViability=FP-FNC/FPC-FNC×100
(§3) Fp is the fluorescence intensity of peptide-treated cells, FNC is the fluorescence intensity for negative controls, and FPC is the fluorescence intensity for positive controls.
(§4) Experiments were performed on different days using independently grown cell cultures.
(§5) FIGURE 4 In vitro cytotoxicity unlabeled- and labeled-peptides. (A,B) Cytotoxicity against HBEC-5i cells. (C,D) Cytotoxicity against MDA-MB-231 cells. 1.5 × 10^4 and 1.0 × 10^4 cells of HBEC-5i and MDA-MB-231 cells, respectively, were incubated with various concentrations of peptides (range from 0.01 to 100 μM). The percentage of viability was determined using CellTiter® Blue reagent assay. […] Error bars, S.D.
(In general: Alamar Blue is a resazurin reagent that responds to reducing activity.)

In another data set the test system is MDA-MB-231 cells. As to the kind of experiment: CellTiter-Blue cell viability assay, MDA-MB-231. It counts as cell-based, human. As to conditions: peptide 0.01-100 μM, mean ± SD, triplicates of three independent experiments; for Cytotoxicity MDA-MB-231 cells IC10: Table 1, concentration causing 10% cell death; for Cytotoxicity MDA-MB-231 cells IC10 / IC90: 24 h; for IC50: Table 1, 24 h, read-out: Cytotoxicity MDA-MB-231 cells IC50; for IC90: Table 1, concentration causing 90% cell death, read-out: Cytotoxicity MDA-MB-231 cells IC90. Here is the method: as §1, §2, §3, §4, §5

The test system of the next data set is human RBCs. Put plainly: Hemolytic activity on human red blood cells. As to conditions: Table 1, human RBCs in 1x PBS pH 7.4, 24 h, 37°C, peptide 0.01-100 μM, mean ± SD, triplicates of three independent experiments; for Hemolytic activity HC10: concentration causing 10% hemolysis, hemoglobin absorbance 570 nm; for Hemolytic activity HC50: concentration causing 50% hemolysis; for Hemolytic activity HC50 / Hemolytic activity HC90: absorbance 570 nm; for Hemolytic activity HC90: concentration causing 90% hemolysis.

Description for human RBCs: Fresh human blood was collected in EDTA tubes and centrifuged at 1,000 × g for 10 min at 4°C. The supernatant was discharged, and the pellet containing RBCs was washed three times with 1× PBS (137 mM NaCl, 2.7 mM KCl, 10 mM Na2HPO4, and 1.8 mM KH2PO4, pH 7.4) and resuspended in 1× PBS to obtain a 2.0% (v/v) suspension. Then, RBCs were added to centrifuge tubes containing two-fold serially diluted peptides to a final concentration ranging from 0.01 to 100 μM. The suspension was incubated for 24 h at 37°C with gentle stirring. After that, samples were centrifuged for 2 min at 1,000 × g. Supernatants were transferred to 96-well plates, and the hemoglobin released measured by absorbance at 570 nm in an Infinite F200 TECAN plate reader. 1× PBS with no peptides and Triton X-100 at 1 and 4% (v/v) were used as negative and positive controls, respectively. Hemolytic activity (%) was determined using the following equation:
(2) Hemolyticactivity(%)=AbsPT-AbsNC/AbsPC-AbsNC
where, AbsPT is the absorbance of treated samples, AbsNC is the absorbance from negative control, and AbsPC absorbance from positive control.
HC50 values were determined using the GraphPad Prism 7.0 software using a log(inhibitor) vs. normalized response. Experiments were performed on different days using independent blood donors.
(range from 0.01 to 100 μM). The percentage of hemolysis was determined by the absorbance of hemoglobin released into the supernatant. Melittin was included as a control peptide with hemolytic properties. The values were obtained from triplicates of three independent experiments. Error bars, S.D.

Turning to `CC[C@H](C)[C@H](NC(=O)[C@H](CCCCN)NC(=O)[C@H](CCCCN)NC(=O)[C@H](CC(C)C)NC(=O)[C@H](CCCNC(=N)N)NC(=O)[C@H](CCCCN)NC(=O)[C@H](CCCCN)NC(=O)c1ccc2c(c1)C(=O)OC21c2ccc(O)cc2Oc2cc(O)ccc21)C(=O)N[C@@H](Cc1ccccc1)C(=O)N[C@@H](CCCCN)C(=O)N[C@@H](CCCCN)C(=O)N1CCC[C@H]1C(=O)N[C@@H](CCSC)C(=O)N[C@H](C(=O)N[C@H](C(=O)NCC(=O)N[C@H](C(=O)N[C@H](C(=O)N[C@H](C(=O)N1CCC[C@H]1C(=O)N[C@@H](Cc1ccccc1)C(N)=O)[C@@H](C)CC)[C@@H](C)O)C(C)C)[C@@H](C)CC)C(C)C` [CF-Ctn[15-34]] (5FAM-KKRLKKIFKKPMVIGVTIPF-NH2), in data set [1], the IC90 (in general, the point of the concentration-response curve where the effect stands at 90%) at 24 h was greater than 200 µM and the IC50 (in general, the concentration that inhibits the measured activity by half) at 24 h is greater than 200 µM. The “Cytotoxicity MDA-MB-231 cells IC10” value in the data set on MDA-MB-231 cells worked out at 4.23 ± 1.02 µM. For the same molecule, in the data set on human RBCs, the “Hemolytic activity HC10” value is greater than 200 µM, the “Hemolytic activity HC50” value was greater than 200 µM and the “Hemolytic activity HC90” value is greater than 200 µM.
Take `N=C(N)NCCC[C@H](NC(=O)[C@H](CCCNC(=N)N)NC(=O)[C@@H]1CCCN1C(=O)[C@H](CCCNC(=N)N)NC(=O)[C@H](CCCNC(=N)N)NC(=O)[C@H](CCCNC(=N)N)NC(=O)[C@H](Cc1c[nH]c2ccccc12)NC(=O)[C@H](CCCNC(=N)N)NC(=O)[C@H](CCCNC(=N)N)NC(=O)[C@H](CCCNC(=N)N)NC(=O)[C@H](CCCNC(=N)N)NC(=O)[C@H](CCCNC(=N)N)NC(=O)[C@H](Cc1c[nH]c2ccccc12)NC(=O)[C@H](CCCNC(=N)N)NC(=O)[C@H](CCCNC(=N)N)NC(=O)[C@H](Cc1ccc(O)cc1)NC(=O)[C@H](CCCNC(=N)N)NC(=O)[C@H](CCCNC(=N)N)NC(=O)[C@H](CCCNC(=N)N)NC(=O)[C@H](Cc1c[nH]c2ccccc12)NC(=O)c1ccc2c(c1)C(=O)OC21c2ccc(O)cc2Oc2cc(O)ccc21)C(N)=O` [CF-vCPP2319] (5FAM-WRRRYRRWRRRRRWRRRPRR-NH2): in data set [1], the IC90 at 24 h stood at 18.8 ± 1.87 µM and the IC50 at 24 h is 4.72 ± 0.94 µM. Also, in the data set on MDA-MB-231 cells, the “Cytotoxicity MDA-MB-231 cells IC10” value is 1.26 ± 0.24 µM. In the data set on human RBCs, the “Hemolytic activity HC10” value was greater than 200 µM, the “Hemolytic activity HC50” value is greater than 200 µM and the “Hemolytic activity HC90” value was greater than 200 µM.
Regarding `CC[C@H](C)[C@H](NC(=O)[C@H](CCCCN)NC(=O)[C@H](CCCCN)NC(=O)[C@H](CC(C)C)NC(=O)[C@H](CCCNC(=N)N)NC(=O)[C@H](CCCCN)NC(=O)[C@H](CCCCN)NC(=O)CCCCCN1C(=CC=CC2=[N+](CC)c3ccccc3C2(C)C)C(C)(C)c2ccccc21)C(=O)N[C@@H](Cc1ccccc1)C(=O)N[C@@H](CCCCN)C(=O)N[C@@H](CCCCN)C(=O)N1CCC[C@H]1C(=O)N[C@@H](CCSC)C(=O)N[C@H](C(=O)N[C@H](C(=O)NCC(=O)N[C@H](C(=O)N[C@H](C(=O)N[C@H](C(=O)N1CCC[C@H]1C(=O)N[C@@H](Cc1ccccc1)C(N)=O)[C@@H](C)CC)[C@@H](C)O)C(C)C)[C@@H](C)CC)C(C)C` [Q570-Ctn[15-34]] (X1-KKRLKKIFKKPMVIGVTIPF-NH2), in data set [1], the IC90 at 24 h is greater than 200 µM and the IC50 at 24 h is 144 ± 4.21 µM. For the same molecule, the “Cytotoxicity MDA-MB-231 cells IC10” value in the data set on MDA-MB-231 cells is 3.08 ± 1.22 µM.
Consider `CC[N+]1=C(C=CC=C2N(CCCCCC(=O)N[C@@H](Cc3c[nH]c4ccccc34)C(=O)N[C@@H](CCCNC(=N)N)C(=O)N[C@@H](CCCNC(=N)N)C(=O)N[C@@H](CCCNC(=N)N)C(=O)N[C@@H](Cc3ccc(O)cc3)C(=O)N[C@@H](CCCNC(=N)N)C(=O)N[C@@H](CCCNC(=N)N)C(=O)N[C@@H](Cc3c[nH]c4ccccc34)C(=O)N[C@@H](CCCNC(=N)N)C(=O)N[C@@H](CCCNC(=N)N)C(=O)N[C@@H](CCCNC(=N)N)C(=O)N[C@@H](CCCNC(=N)N)C(=O)N[C@@H](CCCNC(=N)N)C(=O)N[C@@H](Cc3c[nH]c4ccccc34)C(=O)N[C@@H](CCCNC(=N)N)C(=O)N[C@@H](CCCNC(=N)N)C(=O)N[C@@H](CCCNC(=N)N)C(=O)N3CCC[C@H]3C(=O)N[C@@H](CCCNC(=N)N)C(=O)N[C@@H](CCCNC(=N)N)C(N)=O)c3ccccc3C2(C)C)C(C)(C)c2ccccc21` [Q570-vCPP2319] (X1-WRRRYRRWRRRRRWRRRPRR-NH2), for which, in data set [1], the IC90 at 24 h was determined as 16 ± 1.94 µM and the IC50 at 24 h came to 4.26 ± 1.03 µM. The “Cytotoxicity MDA-MB-231 cells IC10” value in the data set with MDA-MB-231 cells was 1.14 ± 0.34 µM.
In the case of `CC[C@H](C)[C@H](NC(=O)[C@H](CCCCN)NC(=O)[C@H](CCCCN)NC(=O)[C@H](CC(C)C)NC(=O)[C@H](CCCNC(=N)N)NC(=O)[C@H](CCCCN)NC(=O)[C@H](CCCCN)NC(=O)c1ccccc1-c1c2ccc(=[N+](CC)CC)cc-2oc2cc(N(CC)CC)ccc12)C(=O)N[C@@H](Cc1ccccc1)C(=O)N[C@@H](CCCCN)C(=O)N[C@@H](CCCCN)C(=O)N1CCC[C@H]1C(=O)N[C@@H](CCSC)C(=O)N[C@H](C(=O)N[C@H](C(=O)NCC(=O)N[C@H](C(=O)N[C@H](C(=O)N[C@H](C(=O)N1CCC[C@H]1C(=O)N[C@@H](Cc1ccccc1)C(N)=O)[C@@H](C)CC)[C@@H](C)O)C(C)C)[C@@H](C)CC)C(C)C` [RhB-Ctn[15-34]] (RhodamineB-KKRLKKIFKKPMVIGVTIPF-NH2), in data set [1], the IC90 at 24 h is greater than 200 µM and the IC50 at 24 h was greater than 200 µM. For the same molecule, the “Cytotoxicity MDA-MB-231 cells IC10” value in the data set on MDA-MB-231 cells came out at 2.97 ± 0.98 µM. In the data set with human RBCs, the “Hemolytic activity HC10” value is 3.29 ± 1.32 µM, the “Hemolytic activity HC50” value was found to be 61.43 ± 4.33 µM and the “Hemolytic activity HC90” value is greater than 200 µM.
As for `CCN(CC)c1ccc2c(-c3ccccc3C(=O)N[C@@H](Cc3c[nH]c4ccccc34)C(=O)N[C@@H](CCCNC(=N)N)C(=O)N[C@@H](CCCNC(=N)N)C(=O)N[C@@H](CCCNC(=N)N)C(=O)N[C@@H](Cc3ccc(O)cc3)C(=O)N[C@@H](CCCNC(=N)N)C(=O)N[C@@H](CCCNC(=N)N)C(=O)N[C@@H](Cc3c[nH]c4ccccc34)C(=O)N[C@@H](CCCNC(=N)N)C(=O)N[C@@H](CCCNC(=N)N)C(=O)N[C@@H](CCCNC(=N)N)C(=O)N[C@@H](CCCNC(=N)N)C(=O)N[C@@H](CCCNC(=N)N)C(=O)N[C@@H](Cc3c[nH]c4ccccc34)C(=O)N[C@@H](CCCNC(=N)N)C(=O)N[C@@H](CCCNC(=N)N)C(=O)N[C@@H](CCCNC(=N)N)C(=O)N3CCC[C@H]3C(=O)N[C@@H](CCCNC(=N)N)C(=O)N[C@@H](CCCNC(=N)N)C(N)=O)c3ccc(=[N+](CC)CC)cc-3oc2c1` [RhB-vCPP2319] (RhodamineB-WRRRYRRWRRRRRWRRRPRR-NH2), in data set [1], the IC90 at 24 h was 16.6 ± 1.31 µM and the IC50 at 24 h was 4.11 ± 1.04 µM. In the data set on MDA-MB-231 cells, the “Cytotoxicity MDA-MB-231 cells IC10” value came out at 1.13 ± 0.64 µM. Besides, in the data set on human RBCs, the “Hemolytic activity HC10” value turned out to be 2.43 ± 0.32 µM, the “Hemolytic activity HC50” value worked out at 23.88 ± 2.24 µM and the “Hemolytic activity HC90” value is greater than 200 µM.
Consider “TF3-KKRLKKIFKKPMVIGVTIPF-amide [TF3-Ctn[15-34]]”, for which, in the data set on MDA-MB-231 cells, the IC50 came to 123 ± 3.84 µM, the “Cytotoxicity MDA-MB-231 cells IC10” value came out at 2.57 ± 1.37 µM and the IC90 is greater than 200 µM. Also, in the data set with human RBCs, the “Hemolytic activity HC10” value is 102.0 ± 6.20 µM, the “Hemolytic activity HC50” value is greater than 200 µM and the “Hemolytic activity HC90” value was greater than 200 µM.
Regarding “TF3-WRRRYRRWRRRRRWRRRPRR-amide [TF3-vCPP2319]”, in the data set with MDA-MB-231 cells, the IC50 was 4.3 ± 0.03 µM, the “Cytotoxicity MDA-MB-231 cells IC10” value is 1.05 ± 0.21 µM and the IC90 is 17 ± 1.58 µM. In the data set with human RBCs, the “Hemolytic activity HC10” value was found to be 2.83 ± 0.97 µM, the “Hemolytic activity HC50” value is greater than 200 µM and the “Hemolytic activity HC90” value is greater than 200 µM.
